{"source": "ChEMBL document CHEMBL2331105", "about": "“Selective Cyp11B1 Inhibitors for the Treatment of Cortisol Dependent Diseases” (ACS Med Chem Lett, 2013)", "key": {"[1]": {"biological_target": "T1, Cytochrome P450 11B1, mitochondrial (Homo sapiens, UniProt P15538)", "T1 sequence (P15538 whole entry)": "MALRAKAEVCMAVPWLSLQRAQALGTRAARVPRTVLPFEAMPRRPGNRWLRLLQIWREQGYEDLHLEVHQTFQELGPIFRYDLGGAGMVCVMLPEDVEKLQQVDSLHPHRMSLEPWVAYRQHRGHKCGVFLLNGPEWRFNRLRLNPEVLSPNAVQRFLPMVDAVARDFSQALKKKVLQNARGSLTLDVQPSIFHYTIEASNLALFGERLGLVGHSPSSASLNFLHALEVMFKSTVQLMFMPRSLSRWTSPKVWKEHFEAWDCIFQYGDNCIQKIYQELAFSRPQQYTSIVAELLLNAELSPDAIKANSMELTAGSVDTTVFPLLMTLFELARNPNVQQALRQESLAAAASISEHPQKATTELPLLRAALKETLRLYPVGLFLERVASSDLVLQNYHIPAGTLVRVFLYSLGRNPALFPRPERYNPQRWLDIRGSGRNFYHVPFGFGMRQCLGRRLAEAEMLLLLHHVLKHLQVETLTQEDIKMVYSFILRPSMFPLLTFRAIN", "assay": "Inhibition of human CYP11B1 expressed in hamster V79MZ cells using [1,2-3H]11-deoxycorticosterone as substrate preincubated for 60 mins prior to substrate addition measured after 25 mins by HPLC analysis", "assay_type": "cell-based"}, "[2]": {"biological_target": "T2, Cytochrome P450 11B2, mitochondrial (Homo sapiens, UniProt P19099)", "T2 sequence (P19099 whole entry)": "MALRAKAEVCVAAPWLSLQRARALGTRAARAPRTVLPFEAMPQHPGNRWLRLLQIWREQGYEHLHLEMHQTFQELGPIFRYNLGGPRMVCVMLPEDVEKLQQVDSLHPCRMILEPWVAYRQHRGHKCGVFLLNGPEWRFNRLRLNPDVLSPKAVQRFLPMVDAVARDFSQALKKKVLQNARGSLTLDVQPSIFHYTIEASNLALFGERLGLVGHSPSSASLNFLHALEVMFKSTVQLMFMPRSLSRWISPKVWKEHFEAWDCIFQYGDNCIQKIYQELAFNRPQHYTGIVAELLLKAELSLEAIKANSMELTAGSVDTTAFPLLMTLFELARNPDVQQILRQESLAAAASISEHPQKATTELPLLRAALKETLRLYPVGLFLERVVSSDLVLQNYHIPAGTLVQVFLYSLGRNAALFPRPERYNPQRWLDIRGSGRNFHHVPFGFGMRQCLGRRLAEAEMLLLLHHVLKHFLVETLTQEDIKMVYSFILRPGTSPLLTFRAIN", "assay": "Inhibition of human CYP11B2 expressed in hamster V79MZ cells using [1,2-3H]11-deoxycorticosterone as substrate preincubated for 60 mins prior to substrate addition measured after 50 mins by HPLC analysis", "assay_type": "cell-based"}}}
{"smiles": "Fc1ccc(Cn2ccnc2)cn1", "values": [{"measurement": "IC50", "setting": "[1]", "result": 72, "unit": "nM"}, {"measurement": "IC50", "setting": "[2]", "result": 1740, "unit": "nM"}]}
